Measured values reported in patent US20230293518A1 (Edgewise Therapeutics, Inc., priority 2020, published 2023).

How the values were obtained:
[1] = system: embryos from zebrafish model of DMD; conditions: Li and Arner, PLoSONE, 2015; cited from earlier work
[2] = biological target: skeletal myofibrils (myosin ATPase); test: Skeletal Myofibril ATPase Assay; format: biochemical; conditions: Table 4C
How it was run: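 IC50 came from four-parameter logistic fits, bottom constrained ≥0, of (Max−Min) A340 values normalised to 1% DMSO controls. Readings were taken kinetically over 45 min at 1.5-2 min intervals, with ADP from myofibril myosin ATPase coupled through PK-LDH to NADH oxidation. Buffer was pCa (PIPES/CaCl2/EGTA), pH 7.0.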

SMILES	IC50 [2] [µM]	protection of muscles from pathological muscle derangement [1]
Cc1ccc(S(=O)(=O)NCc2ccccc2)cc1 [BTS, N-benzyl-p-tolyl-sulfonamide]		protect muscles from pathological muscle derangement
COc1ccccc1NC(=O)Cn1nc(-c2ccccc2)ccc1=O [IIIc-58, N-(2-methoxyphenyl)-2-(6-oxo-3-phenylpyridazin-1(6H)-yl)acetamide]	10 to 100	
COc1ccc(Cl)cc1NC(=O)Cn1nc(-c2ccccc2)ccc1=O [IIIc-62, N-(5-chloro-2-methoxyphenyl)-2-(6-oxo-3-phenylpyridazin-1(6H)-yl)acetamide]	> 100	
CC(C)NC(=O)Cn1nc(-c2ccccc2)ccc1=O [IIIc-63, N-isopropyl-2-(6-oxo-3-phenylpyridazin-1(6H)-yl)acetamide]	> 100	

Further lines, with some results ahead:

IC50 [2] [µM]	SMILES	protection of muscles from pathological muscle derangement [1]
> 100	O=C(Cn1nc(-c2ccccc2)ccc1=O)Nc1ccc2c(c1)OCCO2 [IIIc-64]	
> 100	O=C(Cn1nc(-c2ccccc2)ccc1=O)NC1CC1 [IIIc-65, N-cyclopropyl-2-(6-oxo-3-phenylpyridazin-1(6H)-yl)acetamide]	
> 100	O=C(Cn1nc(-c2ccccc2)ccc1=O)Nc1ccccc1F [IIIc-66, N-(2-fluorophenyl)-2-(6-oxo-3-phenylpyridazin-1(6H)-yl)acetamide]	
